Results on 11 molecules are retold here after patent US10111854B2, “Synthesis and use of amine-containing flavonoids as potent anti-leishmanial agents” (The Hong Kong Polytechnic University, priority 2014, dated 2018).

Data set [1] has as its system L. amazonensis LV78 promastigotes. Briefly: Anti-promastigote activity (MTS assay), L. amazonensis LV78. The data set is classed as cell-based. The following applies: Leishmania amazonensis, 72 hours. Here is the method: (§1) Promastigotes of visceral L. donovani Ld39 and LdHU3, and cutaneous L. amazonensis LV78, L. braziliensis UA847 and L. major FV1 were employed in the study. All strains were cultured in Schneider's Drosophila Medium (Invitrogen), pH 6.9 supplemented with 10% (v/v) heat inactivated fetal bovine serum (Hyclone) with 4 mM glutamine (Sigma) and 25 μg/mL gentamicin solution (Invitrogen) at 27° C. for 4 days. RAW264.7 cells were cultured in supplemented DMEM media with 10% heat inactivated FBS and 100 U/mL penicillin and 100 μg/mL of streptomycin. They were maintained at 37° C. in a humidified atmosphere with 5% CO2. The cells were split constantly after a confluent monolayer has been formed. The cells were harvested by a cell scraper.
(§2) Anti-promastigote activity was determined according to previous procedures (1) by Cell Titer 96® Aqueous Assay (Promega) that employed a tetrazolium compound. Promastigotes were seeded into 96-well flat bottom microtiter plate at 1×10^5 cells per well in a final volume of 100 μL medium and incubated with a series of concentrations of synthetic FM. Parasites were incubated at 27° C. for 72 hours. After 72 hours of incubation, 10 μL of MTS:PMS mixture [MTS:2-(4,5-Dimethylthiazol-2-yl-)-5-[3-(carboxymethoxy)phenyl]-2-(4-sulfophenyl)-2H-tetrazolium); PMS: phenazine methosulfate both purchased from Sigma] was added into each well of microtiter plate. The plate was then incubated at 27° C. for 4 hours for color development. After 4 hours of incubation, the OD values were determined at 490 nm using automatic microtiter plate reader (Bio-Rad).
(§3) IC50 values of known antileishmanials and the amine-containing flavonoid monomers of the present invention to promastigotes (L. amazonensis LV78, L major FV1, L. donovani HU3, L. donovani 39), macrophages (Raw 264.7 and PEM) and mouse fibroblast (L929) were determined. The anti-promastigotes activities and cytotoxicity of the amine-containing flavonoid monomers of the invention are shown in Table 1.

The test system of data set [2] is L. donovani HU3 promastigotes. Briefly: Anti-promastigote activity (MTS assay), L. donovani HU3. The following applies: Leishmania donovani, 72 hours. It counts as cell-based. Here is the method: as §1, §2, §3
Data set [3] is described as follows: Cytotoxicity, L929 fibroblasts. The following applies: mouse. The data set is classed as cell-based, mouse. Here is the method:
as §3

The test system of data set [4] is L. amazonensis LV78 amastigotes. Briefly: Anti-amastigote activity in infected PEM, L. amazonensis LV78. It counts as cell-based. The following applies: Leishmania amazonensis, 72 h; infected PEM, 3 days, Giemsa. Here is the method: (§4) Mouse peritoneal elicited macrophages (PEM) were obtained as previously described (2). A round cover slip (12 mm in diameter) was placed into each well of 24-well culture plate. Mouse PEM were resuspended in supplemented DMEM media containing 10% heat inactivated FBS (v/v), 100 U/mL penicillin and 100 μg/mL streptomycin and seeded into each well at a cell density of 1×10^5 cells per 500 μL. Macrophages were allowed to attach overnight. Non-adherent cells were removed by gentle washing with un-supplemented DMEM media twice. Adherent macrophages were infected with late-log promastigotes at a parasite-to-macrophage ratio of 20:1 overnight at 37° C. with 5% CO2. Non-internalized promastigotes were removed by washing twice with un-supplemented DMEM media. Infected macrophages were further incubated in 500 μL of supplemented DMEM media in the presence or absence of FM for 72 hours at 37° C. After incubation, cover slips were stained with Giemsa and the percentage of macrophages infected and number of amastigotes per 100 macrophages was enumerated.
(§5) PEM cells were infected with late-log promastigotes (L. amazonensis LV78, L. braziliensis UA847, L. donovani HU3, L. donovani 39) for 24 hr at 37° C. Infected macrophages were then treated with various antileishmanials and incubated for 3 days at 37° C. After 3 days, the cover slips were stained with Giemsa. The number of amastigotes per 100 macrophages were determined and used to calculate IC50 values.

The test system of data set [5] is L. donovani HU3 amastigotes. Briefly: Anti-amastigote activity in infected PEM, L. donovani HU3. Conditions: Leishmania donovani, 72 h; infected PEM, 3 days, Giemsa; SSG-sensitive. It counts as cell-based. Here is the method: as §4, §5
Data set [6] in a line: Cytotoxicity, peritoneal elicited macrophages (PEM). The data set is classed as cell-based, mouse. Conditions: mouse, Cytotoxicity IC50, PEM. Here is the method: as §4, §3
Data set [7] concerns L. major FV1 promastigotes. Briefly: Anti-promastigote activity (MTS assay), L. major FV1. Conditions: Leishmania major, 72 hours. The data set is classed as cell-based. Here is the method: as §1, §2, §3
Data set [8] relates to L. donovani Ld39 promastigotes. Briefly: Anti-promastigote activity (MTS assay), L. donovani Ld39. The following applies: Leishmania donovani, 72 hours. It counts as cell-based. Here is the method: as §1, §2, §3
In data set [9] the test system is L. donovani Ld39 amastigotes (SSG-resistant). Briefly: Anti-amastigote activity in infected PEM, L. donovani Ld39. Conditions: for IC50: Leishmania donovani, 72 h, infected PEM, 3 days, Giemsa, SSG-resistant; for Selective index (a)/(c): IC50 RAW264.7 over IC50 L. donovani Ld39 amastigotes. It counts as cell-based. Here is the method:
as §4, §5

In data set [10] the test system is RAW264.7 cells. Briefly: Reactive oxygen species (ROS) level, DCFDA, RAW264.7. The data set is classed as cell-based, murine. Here is the method:
(§6) 50,000 RAW264.7 were seeded in each well of black 96-well plates overnight. Next day, RAW264.7 cells were pre-loaded with 10 μM dichlorofluorescein diacetate (DCFDA) (Abcam) for 1 hr at 37° C. with 5% CO2. A control of non-DCFDA stained cells was also included. The DCFDA-contained supplemented DMEM media was removed. The cells were re-suspended with 10 μM or 30 μM of respective tested compounds and positive control, tert-butyl hydroperoxide. In Leishmania, 1×10^7 promastigotes were also pre-loaded with 10 μM DCFDA at 27° C. for 1 hr. After removing the DCFDA-contained media, the promastigotes were seeded into black 96-well plate and incubated with 30 μM of respective compounds or positive control. The ROS level was determined at different periods of time including 2, 4, 6, 8, 20, 46 and 72 hr using microplate reader (excitation: 485 nm and emission: […]).
(§7) The ROS levels in both macrophage RAW264.7 and L. amazonensis promastigotes was measured by dichlorofluorescein diacetate (DCFDA) dye which is permeable to the cells. With oxidative stress, DCFDA would be oxidized to fluorescent DCF which is an indicator of intracellular ROS level. RAW cells or L. amazonensis promastigotes were pre-loaded with 10 μM of DCFDA for 1 hr, washed and exposed to 39, FM09, pentamidine and amphotericin B for different period of time (2, 4, 6, 8, 20, 46 and 72 hr). The fluorescence level was measured at the 520 nm using 485 nm as an excitation wavelength. 0.1% DMSO or 0.3% DMSO was used as a solvent control. The fluorescent value has been subtracted from non-DCFDA stained cells. The values were presented as mean±standard error of mean.

For data set [11], the system named is L. amazonensis LV78 promastigotes. Briefly: Reactive oxygen species (ROS) level, DCFDA, promastigotes. The data set is classed as cell-based. Conditions: 30 μM. Here is the method: as §6, §7

`O=c1cc(-c2ccc(OCCN3CCN(Cc4ccccn4)CC3)cc2)oc2ccccc12` [FM01a, 2-(4-(2-(4-(pyridin-2-ylmethyl)piperazin-1-yl)ethoxy)phenyl)-4H-chromen-4-one]: the IC50 in [1] stood at 11.7 ± 1.34 µM; in [2], 15.4 ± 5.98 µM; in data set [3], 60.3 ± 2.3 µM; in data set [4] it was 8.74 ± 0.77 µM; in data set [5] it was 10 µM.
For the molecule `O=c1cc(-c2ccc(OCCC3CCN(Cc4ccccn4)CC3)cc2)oc2ccccc12` [FM05a, 2-(4-(2-(1-(pyridin-2-ylmethyl)piperidin-4-yl)ethoxy)phenyl)-4H-chromen-4-one], the IC50 in data set [1] worked out at 2.97 ± 0.91 µM; in data set [2] it was 7.43 ± 2.15 µM; in data set [3], 58.9 ± 23.3 µM; in data set [6], 17.6 µM; in data set [4], 3.57 ± 1.73 µM; in data set [5], 5.2 ± 1.68 µM.
With `O=c1cc(-c2ccc(OCCOCCN(Cc3ncccn3)Cc3ncccn3)cc2)oc2ccccc12` [FM09d, 2-(4-(2-(2-(bis(pyrimidin-2-ylmethyl)amino)ethoxy)ethoxy)phenyl)-4H-chromen-4-one], the IC50 in data set [1] was 35.3 ± 4.2 µM; in [2], 42.4 ± 7.65 µM; in data set [3] it was greater than 100 µM; in data set [6] it was greater than 100 µM; in data set [4], greater than 10 µM; in data set [5] it was greater than 10 µM.
Regarding `O=c1cc(-c2ccc(OCCOCCN(Cc3ncccc3Cl)Cc3ncccc3Cl)cc2)oc2ccccc12` [FM09g, 2-(4-(2-(2-(bis((3-chloropyridin-2-yl)methyl)amino)ethoxy)ethoxy)phenyl)-4H-chromen-4-one], the IC50 in data set [1] was 28.1 ± 5.24 µM; in data set [2], 18.1 ± 4.88 µM; in data set [3] it was 33.7 ± 10.6 µM; in [4], greater than 10 µM; in data set [5], greater than 10 µM.
In the case of `O=c1cc(-c2ccc(OCCOCCNCc3ccccn3)cc2)oc2ccccc12` [FM09m, 2-(4-(2-(2-((pyridin-2-ylmethyl)amino)ethoxy)ethoxy)phenyl)-4H-chromen-4-one], the IC50 in data set [2] is 25.3 ± 3.94 µM; in [3], 23.9 ± 1.15 µM; in data set [6] it was 28.4 µM; in [4], 4.46 ± 0.68 µM; in data set [5] it was 9.3 ± 0.56 µM.
Consider `O=c1cc(-c2ccc(OCCOCCNC(c3ccccn3)c3ccccn3)cc2)oc2ccccc12` [FM09p, 2-(4-(2-(2-((di(pyridin-2-yl)methyl)amino)ethoxy)ethoxy)phenyl)-4H-chromen-4-one], for which the IC50 in data set [1] was 2.8 µM; in [2], 2.4 µM; in [3], 2.1 µM; in [6] it was 12.5 µM.
Take `O=C(COc1ccc(-c2cc(=O)c3ccccc3o2)cc1)N1CCNCC1` [FM10, 2-(4-(2-oxo-2-(piperazin-1-yl)ethoxy)phenyl)-4H-chromen-4-one]: the IC50 in data set [1] is 31.4 ± 2.4 µM; in [7] it was 78.5 ± 11.3 µM; in data set [2], 37.6 ± 2.8 µM; in [8], 49.5 ± 8 µM; in data set [3], greater than 33 µM; in [4], 6 ± 0.2 µM. This molecule also gave an IC50 in data set [9] greater than 10 µM.
On to `O=C(COc1ccc(-c2cc(=O)c3ccccc3o2)cc1)N1CCCNCC1` [FM11, 2-(4-(2-(1,4-diazepan-1-yl)-2-oxoethoxy)phenyl)-4H-chromen-4-one], for which the IC50 was greater than 100 µM in data set [1]; greater than 100 µM in data set [7]; 66.9 ± 9.7 µM in [2]; greater than 100 µM in data set [8]; greater than 33 µM in data set [3]; 7.1 ± 1.6 µM in data set [4]. In [9], this molecule came in with an IC50 greater than 10 µM.
As to `O=C(COc1ccc(-c2cc(=O)c3ccccc3o2)cc1)N1CCN(Cc2ccncc2)CC1` [FM12, 2-(4-(2-oxo-2-(4-(pyridin-4-ylmethyl)piperazin-1-yl)ethoxy)phenyl)-4H-chromen-4-one], the IC50 is greater than 100 µM in data set [1]; greater than 100 µM in data set [7]; 25.4 ± 3.6 µM in [2]; 15 ± 2.2 µM in [8]; greater than 100 µM in data set [3]; greater than 10 µM in [4]. The same molecule showed an IC50 in data set [9] greater than 10 µM.
Consider `O=C(COc1ccc(-c2cc(=O)c3ccccc3o2)cc1)N1CCN(C(=O)c2ccncc2)CC1` [FM16, 2-(4-(2-(4-isonicotinoylpiperazin-1-yl)-2-oxoethoxy)phenyl)-4H-chromen-4-one], for which the IC50 is greater than 100 µM in data set [1]; greater than 100 µM in data set [7]; greater than 50 µM in data set [2]; 87.1 ± 13 µM in data set [8]; greater than 100 µM in [3]; greater than 10 µM in data set [4]. Moreover, in [9], the midpoint of inhibition, the IC50, lay at 5.7 µM. The “Selective index (a)/(c)” value in data set [9] and in data set [9] (listed as 16) was greater than 17.5 each time.
On to `CC(C)(C)OO` [tert-butyl hydroperoxide], for which the “RAW264.7 ROS Level, Relative fold (RF)” value in data set [10] (10 μM, 2 hr) is 2.3 fold; in data set [10] (10 μM, 4 hr), 2.3 fold; in [10] (10 μM, 6 hr), 2.2 fold; in [10] (10 μM, 8 hr) it was 1.9 fold; in [10] (10 μM, 20 hr), 1.8 fold; in data set [10] (30 μM, 2 hr), 2.9 fold. Moreover, the “RAW264.7 ROS Level, Relative fold (RF)” value is 2.9 fold in [10] (30 μM, 4 hr); 2.6 fold in data set [10] (30 μM, 6 hr); 1.9 fold in data set [10] (30 μM, 20 hr); 1.6 fold in [10] (30 μM, 46 hr). Further, the “L. amazon LV78 promastigote ROS Level, Relative fold (RF)” value amounted to 1.4 fold in data set [11] (2 hr); 1.3 fold in data set [11] (4 hr); 1.4 fold in data set [11] (6 hr); 1.7 fold in data set [11] (20 hr); 1.5 fold in [11] (46 hr); 1.9 fold in [11] (72 hr).
